The source of these data is patent publication US8293781B2, “Indole derivatives having cPLA2 inhibiting activity and applications and production methods of the same” (Daiichi Sankyo Company, Limited, priority 2007, dated 2012).

The target in assay [1] is T1, cPLA2 crudely purified from the cytoplasm fraction of U937 (Homo sapiens, UniProt P47712).
T1 construct: cPLA2 crudely purified from the cytoplasm fraction of U937; endogenous in cells; host or cells: U937 cells (cytoplasm fraction, crude purification)
T1 sequence (P47712 1-749): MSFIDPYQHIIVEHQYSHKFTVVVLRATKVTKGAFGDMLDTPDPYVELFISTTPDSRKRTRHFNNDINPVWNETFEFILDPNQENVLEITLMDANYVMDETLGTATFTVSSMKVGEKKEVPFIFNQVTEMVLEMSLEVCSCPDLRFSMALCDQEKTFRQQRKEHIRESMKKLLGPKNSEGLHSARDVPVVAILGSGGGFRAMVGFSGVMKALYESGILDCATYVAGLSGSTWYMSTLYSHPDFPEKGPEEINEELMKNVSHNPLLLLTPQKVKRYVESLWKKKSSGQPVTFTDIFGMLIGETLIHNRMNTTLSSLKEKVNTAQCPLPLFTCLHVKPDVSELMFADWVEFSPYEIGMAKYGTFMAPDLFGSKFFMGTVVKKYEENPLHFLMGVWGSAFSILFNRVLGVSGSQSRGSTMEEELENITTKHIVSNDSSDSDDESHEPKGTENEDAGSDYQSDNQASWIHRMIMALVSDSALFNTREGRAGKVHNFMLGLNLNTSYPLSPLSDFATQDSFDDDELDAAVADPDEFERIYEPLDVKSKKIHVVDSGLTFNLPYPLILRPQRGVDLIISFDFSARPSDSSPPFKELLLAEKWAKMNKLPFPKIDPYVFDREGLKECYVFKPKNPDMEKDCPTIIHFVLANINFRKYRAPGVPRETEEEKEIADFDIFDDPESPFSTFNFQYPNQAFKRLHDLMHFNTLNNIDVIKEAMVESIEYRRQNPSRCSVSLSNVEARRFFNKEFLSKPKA
Nature of the assay: Measurement of cPLA2 inhibitory activity (release of [14C]-arachidonic acid from phosphatidyl choline liposome). It counts as biochemical. The following applies: cPLA2 from U937 cytoplasm fraction, [14C]arachidonyl-phosphatidyl choline liposome, 37° C., 60 minutes; read-out: cPLA2 inhibitory activity, 50% inhibiting concentration IC50. The method, boiled down:
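The read-out is radioactivity from extracted [14C]-arachidonic acid, freed over 60 min at 37° C from liposomes of 14C-arachidonyl phosphatidylcholine (10 μM PC in the added solution). Buffer was 50 mM HEPES pH 7.5 with Ca2+, DTT, NaCl and BSA. IC50 was derived from inhibition relative to enzyme control minus no-enzyme control.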

Assay [2] relates to PGE2 production in mouse peritoneal exudate cells. As to the kind of experiment: LPS-induced PGE2 production system using mouse peritoneal exudate cells. It counts as cell-based. The following applies: LPS 10 μg/ml, 6 hours. Here is the method: For evaluation of the PGE2 production inhibiting activity, the lipopolysaccharide (LPS)-induced PGE2 production system using mouse peritoneal exudate cells with reference to the method of Kim et al. (see Kim, Y K et al., Biol Pharm Bull 25: 472, 2002) was used. That is, 2 ml of thioglycolate solution (made by Sigma, Brewer's Thioglycorate medium) per mice were intraperitoneally administered to 8-week old female C3H/HeN mice (Charles River Japan). After 4 days, a phosphate buffer saline (PBS) 5 ml was used to wash the abdominal cavity and the infiltrating cells were recovered. The recovered cells were suspended in a predetermined concentration in an RPMI1640 medium (Nacalai Tesque) containing 10% bovine fetal serum (BioWhittaker) and 10 μg/ml gentamycin (Invitrogen).
The infiltrating cell suspension 100 μl containing 2×10^5 cells per well was inoculated in a 96-well culture plate, then the test compound solution or solvent 50 μl was added. Under conditions of 5% CO2 and 37° C., this was precultured for 15 minutes, then LPS (made by Sigma: L-4524) solution 50 μl (final concentration of LPS of 10 μg/ml) was added, and the mixture was cultured for a further 6 hours. After the end of the culture, the culture supernatant was recovered and the PGE2 concentration in the supernatant was measured using an EIA kit (made by Amersham). Based on the measurement value, the test compound concentration suppressing 50% of the PGE2 production at the time of non-addition of a compound (IC50 value) was calculated.

In assay [3] the test system is PGD2 production in rat mast cell like cell line RBL-2H3. As to the kind of experiment: Antigen-induced PGD2 production system using RBL-2H3 sensitized by DNP specific IgE. It counts as cell-based. The following applies: 0.5 h, RBL-2H3, anti-DNP-IgE sensitized, antigen 10 μg/ml, 30 minutes. Here is the method: To evaluate the PGD2 production inhibiting activity, the antigen-induced PGD2 production system using rat mast cell like cell line RBL-2H3 sensitized by a dinitrophenol (DNP) specific IgE with reference to the method of Yamashita et al. (see Yamashita, M. et al., Br J Pharmacol 129: 367, 2000) was used. That is, rat mast cell like cell line RBL-2H3 cells were suspended in a Dulbecco's modified Eagle's medium (Nacalai Tesque) containing 10% bovine fetal serum (BioWhittaker) and 10 μg/ml gentamycin (Invitrogen). The infiltrating cell suspension 200 μl containing 1×10^5 cells per well was inoculated to 96-well culture plate and cultured over night under conditions of 5% CO2 and 37° C. The culture supernatant was removed, then the suspension was cultured for 2 hours in the presence of an anti-DNP-IgE antibody (1 μg/ml) for 2 hours to sensitize it. After the sensitization, the supernatant was removed and the test compound solution or solvent was added. The resultant product was precultured for 30 minutes, then 10 μg/ml of antigen (DNP-human serum albumin conjugate) was added to elicite PGD2 production.
30 minutes after antigen stimulus, the culture supernatant was recovered and the amount of PGD2 in the supernatant was measured using an EIA kit (made by Cayman). Based on the measurement value, the test compound concentration (IC50 value) suppressing the amount of PGD2 production at the time of nonaddition of the compound by 50% was calculated.

Assay [4] concerns LTB4 production in rat mast cell like cell line RBL-2H3. As to the kind of experiment: Calcium ionophore-induced LTB4 production system using RBL-2H3. It counts as cell-based. The following applies: 1 h, RBL-2H3, A23187 5 μM, one hour. As to the method: (§1) For the evaluation by LTB4 and Cys-LTs production inhibiting activity, the calcium ionophore-induced LTB4 and Cys-LTs production system using the rat mast cell like cell line RBL-2H3 with reference to the method of Ishiwara et al. (see Ishiwara M. et al., J Pharmacol Exp Ther 307: 583, 2003) was used. That is, rat mast cell like cell line RBL-2H3 cells were suspended in Dulbecco's modified Eagle's medium (Nacalai Tesque) containing 10% bovine fetal serum (BioWhittaker) and 10 μg/ml gentamycin (Invitrogen). The infiltrating cell suspension 200 μl containing 1×10^5 cells per well was inoculated to 96-well culture plate and cultured over night under conditions of 5% CO2 and 37° C. The culture supernatant was removed, then the test compound solution or solvent 50 μl was added. After 30 minutes preculture, calcium ionophore (A23187) was added to a final concentration of 5 μM to induce leukotriene production.
(§2) One hour after calcium ionophore stimulus, the culture supernatant was recovered and the amounts of LTB4 and Cys-LTs in the supernatant were measured using an EIA kit (made by Amersham). Based on the measurement values, the test compound concentrations suppressing 50% of the mediator production at the time of non-addition of a compound (IC50 value) were calculated.

Assay [5] deals with Cys-LTs production in rat mast cell like cell line RBL-2H3. As to the kind of experiment: Calcium ionophore-induced Cys-LTs production system using RBL-2H3. The following applies: 1 h, RBL-2H3, A23187 5 μM, one hour. It counts as cell-based. Here is the method:
as §1, §2

The test system of assay [6] is TPA-induced mouse dermatitis model. As to the kind of experiment: TPA-induced mouse dermatitis model (ear thickness). It counts as in vivo. Particulars: 50 mg/kg orally 30 minutes before TPA, 6 hours after TPA, C57BL/6 mice. As to the method: Phorbol ester (TPA) was applied to the ear to elicite acute inflammation having ear edema as a main symptom. In the present test model, it is known that arachidonic acid metabolites, constituting various lipid mediators, are involved in inflammation. By this Experiment, it is possible to evaluate the anti-inflammatory action in vivo of anti-inflammatory drugs acting on the arachidonic acid cascade.
The Experiment was performed with reference to the method of Chang et al. (see Chang J., Eur J Pharmacol 142: 197, 1987). That is, the ear of female C57BL/6 mice (Charles River Japan) were painted with 20 μl of TPA in an acetone solution (concentration 50 μg/ml) to induce dermatitis at the ear. The ear thicknesses before application of TPA and 6 hours after application of TPA were measured using a dial gauge and the increase in ear thickness caused by inflammation was calculated. The test compound or the 0.5% hydroxypropyl cellulose solution as vehicle was administered orally to the mice 30 minutes before application of TPA. Note that the number of mice used in the test was made six per group.
Based on the measurement value, the action of each test compound in suppressing the increase in ear thickness due to application of TPA was evaluated.

Where a name gives a salt, the structure may show the parent alone.

Turning to `O=C(O)CCc1ccc2c(c1)c(CCc1ccccc1)cn2-c1ccccc1O` [Example 147, 3-[1-(2-hydroxyphenyl)-3-(2-phenylethyl)-1H-indol-5-yl]propanoic acid], the IC50 was 779 nM in assay [1] and 1240 nM in assay [2].

With `O=C(O)CCc1ccc2c(c1)c(CCc1ccccc1)cn2-c1cccc(O)c1` [Example 157, 3-[1-(3-hydroxyphenyl)-3-(2-phenylethyl)-1H-indol-5-yl]propanoic acid], the IC50 in assay [1] is 186 nM; in assay [2], 2250 nM.

As for `O=C(O)CCc1ccc2c(c1)c(CCc1ccccc1)cn2-c1ccc(OC(F)(F)F)cc1` [Example 193, 3-{3-(2-phenylethyl)-1-[4-(trifluoromethoxy)phenyl]-1H-indol-5-yl}propanoic acid 2-amino-2-(hydroxymethyl)propane-1,3-diol salt (1:1)], the IC50 in assay [1] was determined as 141 nM; in assay [3], 820 nM; in assay [4] it was 630 nM; in assay [5] it was 1380 nM. Besides, the “Suppression rate of increase in ear thickness” value in assay [6] was 19.4%.
